Test results from patent US8575111B2, “Pharmaceutical compositions and methods for treating erectile dysfunction” (Universidade Federal de Minas Garais-UFMG, priority 2007, dated 2013).

Legend:
[1] = tested on: erectile function of SHR; assay: Erectile function (CCP/MAP) of SHR chronically treated orally; format: in vivo, rat; conditions: chronic oral treatment, drug alone, 1.5 V
Procedure: Eight weeks post-treatment with Ang-(1-7)/HPβ-CD Inclusion Complex and/or Atenolol, the erectile function of the animals (SHR, spontaneously hypertensive rats) was evaluated. Particularly, erectile function of animals chronically treated with Atenolol was evaluated after concurrent administration with Ang-(1-7)/HPβ-CD Inclusion Complex. The drugs were orally administered via solutions containing them, alone or in combination. As a control, a group of animals was treated with HPβ-CD.
The procedure for inducing erection and intracavernosal pressure measurement was made as previously described (see, T. M. Mills, R. W. Lewis, V. S. Stopper, Biol Reprod 59, 1413 (December, 1998). Firstly, the animals (SHR) were anesthetized with intraperitoneal urethane (140 mg/kg) and placed on a thermal plate to maintain body temperature at 37° C. A polyethylene cannule was introduced into the animal trachea to keep respiratory patency. Following, the rat left femoral artery was cannulated with a polyethylene tube (PE-50) with heparinized saline (200 U/ml) for continuous monitoring of mean arterial pressure (MAP). The catheter was connected to a pressure transducer. The penial erection was obtained by applying electric stimulation on the major pelvic ganglion (MPG). […]

[2] = tested on: rat ganglionic-stimulated erectile response; assay: Ganglionic-stimulated changes in CCP/MAP after intracavernosal drug administration in anesthetized rats; format: in vivo
Procedure: Normotensive and DOCA-salt hypertensive rats, Mas−/− and WT mice were anesthetized with intraperitoneal urethane (140 mg/Kg). The rat left femoral artery and mice […] was cannulated for continuous monitoring of mean arterial pressure (MAP). The shaft of the penis was freed of skin and fascia, and the right corpus cavernosum was cannulated by insertion of a 30-gauge needle connected to a pressure transducer, permitting continuous monitoring of corpus cavernosum pressure (CCP) as described elsewhere (see, e.g., T. M. Mills, et al., Biol Reprod 59, 1413 (December, 1998)). The rat left corpus cavernosum was cannulated with 30-gauge needles attached to 10-μL syringes via short lengths of polyethylene (PE)-10 tubing and used for administration of vasoactive drugs. The abdominal cavity was opened, exposing the right major pelvic ganglion (MPG), and silver bipolar electrodes were positioned on it. […]
In order to evaluate the role of the Ang-(1-7) released endogenously, it was first determined the minimal stimuli in which the maximal value of the CCP/MAP was achieved. […]
To evaluate the effect of Ang-(1-7) on ganglionic-stimulated CCP/MAP rise in the presence of NOS inhibition, a sub-maximal stimulus was determined and applied to the MPG. […] Thereafter, Ang-(1-7) was administered and sub-maximal stimulus was applied while CCP/MAP was continuously recorded.

[3] = molecular target: T1, AT1 (Homo sapiens, UniProt P30556); conditions: receptor AT1; cited from earlier work
T1 sequence (P30556 1-359): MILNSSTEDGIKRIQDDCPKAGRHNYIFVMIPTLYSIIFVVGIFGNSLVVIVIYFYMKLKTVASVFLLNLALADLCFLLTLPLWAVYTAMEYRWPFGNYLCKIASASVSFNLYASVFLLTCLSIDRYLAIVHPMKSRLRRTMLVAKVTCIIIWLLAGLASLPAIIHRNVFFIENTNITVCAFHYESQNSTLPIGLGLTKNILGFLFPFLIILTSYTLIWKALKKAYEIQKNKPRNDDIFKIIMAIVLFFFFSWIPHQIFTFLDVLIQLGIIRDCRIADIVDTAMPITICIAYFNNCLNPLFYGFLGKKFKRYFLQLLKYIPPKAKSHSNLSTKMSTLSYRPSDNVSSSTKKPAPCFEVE

[4] = tested on: erectile dysfunction; conditions: men with erectile dysfunction; cited from earlier work
[5] = Absorption and biological stability after gavage in Wistar rats; format: in vivo, rat; conditions: Ang-(1-7) peptide alone, gavage 100 μg/50 μl
Procedure: Assays for determining absorption and biological stability of the Ang-(1-7)/HPβ-CD inclusion complex were made in aqueous solution. Twelve normal Wistar rats properly prepared were used to carry out the experiments. The animals were divided in 3 experimental groups and subjected to a gavage procedure with a salt solution (0.9%/50 μl) of Ang-(1-7) (100 μg/50 μl) and Ang-(1-7)/HPβ-CD (100 μg/50 μl). Four blood samples (1 ml, each) from the animals were collected. The first collection occurred before gavage procedure, and the remaining three 2, 6 and 24 hours post gavage.

## CC(C)NCC(O)COc1ccc(CC(N)=O)cc1 (stereo not drawn) [Atenolol, atenolol]
[1]
  effect on intracavernosal pressure rise induced by stimulation of the major pelvic ganglion: reduced

## COC(=O)[C@@H](N)CCCNC(=N)N[N+](=O)[O-] [L-NAME, Nw-nitro-L-arginine methyl ester]
[2]; L-NAME 200 μg/Kg intracavernosal, mean±s.e.m., n=6, control 0.57±0.06, P<0.05
  CCP/MAP induced by submaximal stimulus: 0.38±0.05
[2]; administration into left cavernosal sinuses
  effect on baseline CCP or MAP: did not alter

## Des-Asp1-Ang I: angiotensin listed in Table 1, acting on AT1 (RVYIHPFHL; Angiotensin-1; UniProt P01019 26-34, looked up, fragment)
[3]
  Actions: Inhibition of Ang II-induced cell

## CCCCC[C@H](O)/C=C/[C@H]1[C@H](O)CC(=O)[C@@H]1CCCCCCC(=O)O [ALPROSTADIL®]
[4]
  patients in whom the treatment is effective: over 80%

## CC[C@H](C)[C@H](NC(=O)[C@H](Cc1ccc(O)cc1)NC(=O)[C@@H](NC(=O)[C@H](CCCNC(=N)N)NC(=O)[C@@H](N)CC(=O)O)C(C)C)C(=O)N[C@@H](Cc1c[nH]cn1)C(=O)N1CCC[C@H]1C(=O)O [Ang-(1-7), Asp-Arg-Val-Tyr-Ile-His-Pro]
[5]
  increase of plasmatic peptide concentration relative to Ang-(1-7)/HPβ-CD: about 8 fold lower
